One assay addresses T1, human Y4 receptor (Homo sapiens, UniProt P50391).
T1 construct: expressed in transfected cells; host or cells: CHO cells (CHO-Y4H), membrane preparation
Nature of the assay: Binding test to the NPY Y4 receptor ([125I]-human PP, CHO cell membranes). The note with it: human Y4, [125I]-human PP. As for the experimental part:
The CHO cells expressing either the Y4 or the Y5 human recombinant receptor are cultured in DMEM medium to which is added 5% dialysed foetal calf serum, 10 mM Hepes buffer and 0.8 g/l sodium bicarbonate. They are lifted from their support using a 36 mM citrate buffer without trypsin and without EDTA, and washed in PBS buffer free of Ca^2+ and of Mg^2+. The cell residues are stored at (−80° C.) until fractioning.
The cell residue is redissolved in 10 mM TRIS buffer, 3 mM MgCl2, pH 7.4 and separated with polytron. After centrifuging at 20 000×g the residue is redissolved in this same buffer, potter separated and aliquoted for storage in liquid nitrogen to around 5 mg/ml proteins.
Approximately 80 μg of membranes of CHO cells having stable expression of the human Y4 receptor are incubated for 60 min at 30° C. in 200 μl Krebs-Ringer buffer (pH 7.4) containing 20 mM Hepes, 1% bovine serum albumin, 0.25 mg/ml bacitracin and 0.1 nM of [^125I]-human PP (Pancreatic Polypeptide, Perkin Elmer, NEX 315). The reaction is halted by filtering through Wathman GF/C filters and washing with 3 times 4 ml of buffer at 4° C. The radioactivity deposited on the filter is counted with a gamma counter (Whizard 1470, Wallac, Perkin Elmer). Non-specific binding is determined in the presence of 0.3 μM of human PP (Neosystem, SC104). […]

In a further assay the target is T2, NPY Y2 receptor (Homo sapiens, UniProt P49146).
T2 construct: host or cells: KAN.TS cells (whole-cell suspension)
T2 sequence (P49146 1-381): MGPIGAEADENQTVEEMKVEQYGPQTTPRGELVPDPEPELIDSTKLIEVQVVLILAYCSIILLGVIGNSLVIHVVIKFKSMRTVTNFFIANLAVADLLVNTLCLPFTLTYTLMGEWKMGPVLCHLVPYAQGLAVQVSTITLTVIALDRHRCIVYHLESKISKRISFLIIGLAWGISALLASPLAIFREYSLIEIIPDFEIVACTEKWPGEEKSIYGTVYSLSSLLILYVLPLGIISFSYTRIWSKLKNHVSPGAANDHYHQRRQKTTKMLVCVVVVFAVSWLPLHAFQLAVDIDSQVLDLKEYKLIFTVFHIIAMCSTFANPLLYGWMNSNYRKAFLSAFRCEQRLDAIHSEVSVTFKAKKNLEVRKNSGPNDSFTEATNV
As to the kind of experiment: Binding test to the NPY Y2 receptor ([125I]-PYY, KAN.TS cell suspension). As for the experimental part: The KAN.TS cells (Amersham RPNQ0081) are cultured at 37° C. in DMEM Glutamax medium (Life Technology ref. 61965026) containing 15% foetal calf serum (Invitrogen), 1% L-Glutamine (Invitrogen ref.250300-032), 50 IU/ml penicillin and 50 μg/ml of streptomycin (Invitrogen ref. 15070022) in a humid atmosphere containing 5% CO2.
After aspirating the culture medium, the cells are washed with phosphate buffer pH 7.4 (Sigma ref. D5652), then lifted with a solution of PBS^−, 0.5 mM EDTA (ethylenediaminetetraacetic acid) (Sigma ref ED 2SS). […] The cells are counted and centrifuged at 1500 rpm for 10 min then resuspended in the freeze buffer and aliquoted into ten million cells per millilitre of freeze buffer, and stored at −70° C.
The cell suspension with 25000 cells/ml is incubated 1 h at 37° C. in an incubation buffer pH 7.4 containing 50 mM HEPES/NaOH, 2.5 mM calcium chloride, 1 mM magnesium chloride, 0.025% sodium azide, 1 mg/ml bovine albumin and 15 pM of [^125I]-PYY (Perkin Elmer, NEX341). […] The radioactivity deposited on the filter is measured by liquid scintillation count (TopCount, Packard). Non-specific binding is determined in the presence of 1 μM NPY (Bachem, H3322). […]

Molecules are shown by their SMILES.

What is called IC50 is the concentration that inhibits the measured activity by half.

T1 sequence (P50391 whole entry): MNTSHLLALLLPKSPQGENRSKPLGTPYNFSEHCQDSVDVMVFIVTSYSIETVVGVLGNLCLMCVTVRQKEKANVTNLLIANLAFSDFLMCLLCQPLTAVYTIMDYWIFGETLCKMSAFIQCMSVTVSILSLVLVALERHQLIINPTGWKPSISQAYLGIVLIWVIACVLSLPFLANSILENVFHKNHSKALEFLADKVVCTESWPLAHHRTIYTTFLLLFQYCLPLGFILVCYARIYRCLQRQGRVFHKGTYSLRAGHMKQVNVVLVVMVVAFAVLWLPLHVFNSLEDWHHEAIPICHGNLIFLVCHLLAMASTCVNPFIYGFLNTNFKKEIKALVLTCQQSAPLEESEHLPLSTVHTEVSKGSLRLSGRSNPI

Regarding `CCCCN1CCC(Oc2ccc(C(=O)Nc3ccc(Oc4ccc(NC(=O)NC(CC)CC)cc4OC)cc3)cc2)CC1` [Example 103, 4-(1-Butyl-piperidin-4-yloxy)-N-(4-{4-[3-(1-ethyl-propyl)-ureido]-2-methoxy-phenoxy}-phenyl)-benzamide], the IC50 at human Y4 receptor was 2620 nM; on NPY Y2 receptor (KAN.TS cells, [125I]-PYY), greater than 10000 nM. At NPY Y2 receptor (inhibition of specific binding at 10 μM of compound, read-out: % Inh at 10 μM Y2), the inhibition at 10 µM was 10%.

The values above are taken from patent US20090233910A1, “Npy antagonists, preparation and uses” (CEREP, priority 2005, published 2009).
